Test results from ChEMBL document CHEMBL1201862, “PubChem BioAssay data set” (2004).
Calls of active or inactive are those of the source. Cut-off read from the data, not from the text of the source, for most assays here: actives have a measured EC50 and inactives only a lower limit.

Legend:
[1] = Trypanosoma cruzi growth suppression in host cells – NIH3T3 host cells, beta-gal luminescence, confirmation (AID 2044); format: functional, cell-based;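 note: intracellular parasites grown in NIH/3T3 mouse fibroblasts as host cells; luminescent beta-galactosidase reporter signal from transgenic T. cruzi replicating inside host cells; inhibitors lower the luminescence signal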
[2] = target: T1, Protein RecA (Mycobacterium tuberculosis, UniProt P9WHJ3); assay: Fluorescence Cell-Free Homogeneous Dose Retest to Identify Inhibitors of RecA-Intein Splicing Activity. [Related pubchem assays (depositor defined):AID2097, AID2223, AID489010, AID492950]; format: functional
T1 sequence (P9WHJ3 whole entry): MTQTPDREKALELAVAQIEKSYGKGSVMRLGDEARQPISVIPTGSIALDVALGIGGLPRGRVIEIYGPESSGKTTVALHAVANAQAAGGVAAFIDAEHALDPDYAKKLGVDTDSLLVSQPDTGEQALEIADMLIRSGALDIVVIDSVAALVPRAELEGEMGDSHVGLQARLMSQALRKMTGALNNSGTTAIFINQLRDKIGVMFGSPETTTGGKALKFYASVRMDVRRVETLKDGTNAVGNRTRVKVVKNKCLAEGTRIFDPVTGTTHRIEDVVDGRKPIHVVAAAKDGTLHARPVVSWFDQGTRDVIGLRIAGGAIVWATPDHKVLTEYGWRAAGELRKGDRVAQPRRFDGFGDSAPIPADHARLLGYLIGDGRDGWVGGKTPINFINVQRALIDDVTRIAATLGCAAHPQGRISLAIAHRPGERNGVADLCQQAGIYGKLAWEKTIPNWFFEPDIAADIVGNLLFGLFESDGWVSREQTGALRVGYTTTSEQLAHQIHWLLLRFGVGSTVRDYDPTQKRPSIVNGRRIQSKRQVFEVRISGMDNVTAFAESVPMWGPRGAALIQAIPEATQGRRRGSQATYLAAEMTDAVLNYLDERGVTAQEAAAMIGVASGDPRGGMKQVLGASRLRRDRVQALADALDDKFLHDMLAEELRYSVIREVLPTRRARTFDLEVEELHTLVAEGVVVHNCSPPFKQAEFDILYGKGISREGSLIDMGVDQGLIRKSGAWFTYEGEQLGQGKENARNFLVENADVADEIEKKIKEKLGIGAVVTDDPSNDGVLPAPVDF

[3] = NIH3T3 cell viability loss – ATP luminescence, mouse fibroblasts, counter-screen, dose response (AID 2010); format: functional, cell-based;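 note: cells exposed to compound for about 90 hours before reading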
[4] = target: T2, Replicative DNA helicase DnaB (Mycobacterium tuberculosis, UniProt P9WMR3); assay: DnaB intein splicing inhibitors, dose response, biochemical, cell-free fluorescence (AID 449749); format: functional
T2 sequence (P9WMR3 whole entry): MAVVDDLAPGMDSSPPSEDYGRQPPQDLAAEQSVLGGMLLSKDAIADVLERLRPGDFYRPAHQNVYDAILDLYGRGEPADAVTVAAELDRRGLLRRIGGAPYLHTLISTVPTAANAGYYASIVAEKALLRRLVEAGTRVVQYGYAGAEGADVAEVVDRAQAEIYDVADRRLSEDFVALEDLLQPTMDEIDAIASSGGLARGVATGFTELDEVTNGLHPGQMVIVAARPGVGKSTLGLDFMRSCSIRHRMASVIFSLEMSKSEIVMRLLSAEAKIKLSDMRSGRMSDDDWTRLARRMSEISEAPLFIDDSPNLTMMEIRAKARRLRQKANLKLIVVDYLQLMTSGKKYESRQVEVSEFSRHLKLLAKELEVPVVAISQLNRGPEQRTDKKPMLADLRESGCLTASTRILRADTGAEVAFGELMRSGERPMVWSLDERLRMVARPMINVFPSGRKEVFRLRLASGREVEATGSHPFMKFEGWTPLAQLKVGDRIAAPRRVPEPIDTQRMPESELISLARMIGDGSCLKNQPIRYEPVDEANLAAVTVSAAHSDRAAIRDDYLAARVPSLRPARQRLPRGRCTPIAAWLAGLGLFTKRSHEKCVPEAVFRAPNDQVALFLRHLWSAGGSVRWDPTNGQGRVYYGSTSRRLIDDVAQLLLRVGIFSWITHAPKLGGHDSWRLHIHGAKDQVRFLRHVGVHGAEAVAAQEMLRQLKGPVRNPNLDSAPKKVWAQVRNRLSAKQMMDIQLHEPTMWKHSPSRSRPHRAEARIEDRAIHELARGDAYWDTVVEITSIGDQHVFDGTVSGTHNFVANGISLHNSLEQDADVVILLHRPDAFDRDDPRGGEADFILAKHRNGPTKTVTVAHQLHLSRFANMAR

[5] = target: T3, Zinc finger protein mex-5 (Caenorhabditis elegans, UniProt Q9XUB2); assay: potency of MEX-5 RNA-binding blockers – biochemical, C. elegans, fluorescence polarization, dose response (AID 1960)
T3 sequence (Q9XUB2 whole entry): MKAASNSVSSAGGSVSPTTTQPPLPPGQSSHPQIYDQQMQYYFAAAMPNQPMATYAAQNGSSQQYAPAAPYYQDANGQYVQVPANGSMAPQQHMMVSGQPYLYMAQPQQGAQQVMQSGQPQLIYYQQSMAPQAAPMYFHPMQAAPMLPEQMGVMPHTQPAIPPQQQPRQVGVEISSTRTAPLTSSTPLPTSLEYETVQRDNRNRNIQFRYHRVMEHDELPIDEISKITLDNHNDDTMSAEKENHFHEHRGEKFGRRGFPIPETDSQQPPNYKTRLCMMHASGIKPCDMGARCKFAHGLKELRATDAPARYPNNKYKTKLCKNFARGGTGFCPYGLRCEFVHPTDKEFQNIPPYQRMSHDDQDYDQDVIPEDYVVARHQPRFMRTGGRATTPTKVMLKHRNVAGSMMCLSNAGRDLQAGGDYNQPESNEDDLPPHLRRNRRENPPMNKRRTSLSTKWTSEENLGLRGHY

[6] = viability of uninfected HEp-2 cells – cell-based, HTS, cytotoxicity control for RSV inhibitor project, dose response (AID 2410); format: functional; settings: human respiratory syncytial virus
[7] = target: T4, RNA-binding protein pos-1 (Caenorhabditis elegans, UniProt G5EF15); assay: disruptors of C. elegans POS-1 RNA interaction – biochemical, fluorescence polarization, dose response (AID 1964);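 note: purified POS-1 fused to maltose binding protein made in E. coli; potency of compounds blocking POS-1 binding to fluorescent RNA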
T4 sequence (G5EF15 whole entry): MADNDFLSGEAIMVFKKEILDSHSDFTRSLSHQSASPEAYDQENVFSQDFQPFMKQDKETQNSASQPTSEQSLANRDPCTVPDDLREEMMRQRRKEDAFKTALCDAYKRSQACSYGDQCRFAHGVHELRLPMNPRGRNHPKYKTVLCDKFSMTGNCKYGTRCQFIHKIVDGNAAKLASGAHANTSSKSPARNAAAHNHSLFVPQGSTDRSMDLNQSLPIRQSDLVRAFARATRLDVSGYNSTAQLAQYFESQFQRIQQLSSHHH

[8] = target: FAD-linked sulfhydryl oxidase ALR (Homo sapiens, UniProt P55789); assay: ALR-catalysed DTT oxidation blockers – biochemical, H2O2 detection, luminescence, cherry-pick, dose response (AID 493248)
[9] = microbe, parasite or virus in culture; format: functional; settings: Mycobacterium tuberculosis
[10] = Luminescence Cell-Based Dose Confirmation HTS to Identify Activators of 5'UTR Stem-Loop Driven Alpha-Synuclein mRNA Translation in H4 Neuroglioblastoma Cells. [Related pubchem assays: 1829 (Project Summary), 1814 (Primary HTS)]; format: functional
[11] = Luminescence Cell-Based Dose Response HTS to Identify Activators of Luciferase Translation or Activity in H4 […] Cells. [Related pubchem assays: 1829 (Project Summary), 1814 (Primary HTS)]; format: functional
[12] = tested on: H4; assay: Luminescence Cell-Based Dose Response HTS to Identify Activators of 5'UTR Stem-Loop Driven Prion Protein mRNA Translation in H4 Neuroglioblastoma Cells. [Related pubchem assays: 1829 (Project Summary), 1814 (Primary HTS)]; format: functional; settings: Homo sapiens
[13] = cells; format: functional
[14] = target: T5, Heat shock factor protein 1 (Mus musculus, UniProt P38532); assay: decrease of HSF1-responsive luciferase luminescence – cell-based, NIH3T3, dose retest, confirmation (AID 2382); format: functional;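 note: NIH3T3 fibroblasts with HSF1-driven luciferase reporter stressed by proteasome inhibitor MG132; luminescence from HSF1-driven luciferase expression after 8 hours of MG132 stress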
T5 sequence (P38532 whole entry): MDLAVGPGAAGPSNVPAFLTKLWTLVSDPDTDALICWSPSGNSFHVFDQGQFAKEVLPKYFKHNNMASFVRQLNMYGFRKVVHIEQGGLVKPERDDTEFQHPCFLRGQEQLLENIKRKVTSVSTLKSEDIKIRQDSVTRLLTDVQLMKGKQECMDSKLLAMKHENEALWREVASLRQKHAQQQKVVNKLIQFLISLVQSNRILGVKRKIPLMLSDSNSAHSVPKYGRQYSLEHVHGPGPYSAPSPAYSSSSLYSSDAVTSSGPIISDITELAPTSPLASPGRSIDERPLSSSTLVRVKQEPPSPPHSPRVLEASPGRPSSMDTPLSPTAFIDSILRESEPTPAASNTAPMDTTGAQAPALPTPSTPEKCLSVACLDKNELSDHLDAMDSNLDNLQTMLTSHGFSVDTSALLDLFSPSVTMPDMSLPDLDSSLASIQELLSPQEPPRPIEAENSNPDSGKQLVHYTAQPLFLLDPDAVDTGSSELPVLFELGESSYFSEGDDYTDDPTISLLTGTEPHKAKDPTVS

[15] = target: T6, Polyadenylate-binding protein 1 (Homo sapiens, UniProt P11940); assay: MLLE domain peptide-binding blockers, IC50 – biochemical, fluorescence polarization, FITC-PAM2 peptide, dose response (AID 602259); format: functional; settings: read-out: IC50_Mean
[16] = target: T6, Polyadenylate-binding protein 1; assay: MLLE binding blockers, Cy5 peptide tracer – biochemical, fluorescence polarization, Cy5-PAM2 peptide, secondary, miRNA deadenylation inhibitor project, dose response (AID 602260); format: functional; settings: read-out: IC50_Mean

FAD-linked sulfhydryl oxidase ALR, sequence (P55789 whole entry): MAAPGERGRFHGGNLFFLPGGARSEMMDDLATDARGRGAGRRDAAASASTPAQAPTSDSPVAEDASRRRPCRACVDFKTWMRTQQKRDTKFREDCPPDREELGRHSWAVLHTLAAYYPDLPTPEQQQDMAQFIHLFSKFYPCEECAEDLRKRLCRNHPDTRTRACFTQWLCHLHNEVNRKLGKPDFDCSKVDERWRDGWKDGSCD
T6 sequence (P11940 whole entry, the tested form may be a part): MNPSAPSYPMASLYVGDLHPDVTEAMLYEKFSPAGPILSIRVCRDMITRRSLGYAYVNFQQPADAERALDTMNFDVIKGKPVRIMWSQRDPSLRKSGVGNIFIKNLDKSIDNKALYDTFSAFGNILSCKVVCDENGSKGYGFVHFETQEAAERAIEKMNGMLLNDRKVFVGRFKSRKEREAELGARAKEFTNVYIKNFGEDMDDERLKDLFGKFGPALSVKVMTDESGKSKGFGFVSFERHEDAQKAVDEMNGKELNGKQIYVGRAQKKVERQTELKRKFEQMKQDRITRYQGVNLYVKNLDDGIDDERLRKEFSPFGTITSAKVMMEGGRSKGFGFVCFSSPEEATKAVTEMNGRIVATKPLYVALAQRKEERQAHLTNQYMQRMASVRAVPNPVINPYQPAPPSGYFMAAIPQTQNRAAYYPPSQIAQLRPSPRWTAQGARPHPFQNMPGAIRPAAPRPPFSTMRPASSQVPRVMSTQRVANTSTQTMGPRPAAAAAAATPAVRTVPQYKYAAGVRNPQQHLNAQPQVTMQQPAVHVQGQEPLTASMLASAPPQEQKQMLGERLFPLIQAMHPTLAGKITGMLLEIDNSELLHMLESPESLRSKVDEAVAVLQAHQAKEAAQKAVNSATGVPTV

CC(=O)N(C)Cc1ccc(C(=O)CCl)cc1
EC50 [1]: 2.51 µM (active)
EC50 [2]: 19.4 µM (active)
EC50 [3]: 3.7 µM (active)
AC50 [4]: 56.2 µM (active)

CCN(CC)C(=O)c1ccc2c(c1[N+](=O)[O-])C(=O)c1ccccc1C2=O
EC50 [2]: > 380 µM (inactive)
AC50 [4]: > 380 µM (inactive)

CCN(CC)CCN(Cc1cc2ccc(C)c(C)c2nc1O)C(S)=NCc1ccco1
EC50 [5]: > 300 µM (not active)
CC50 [6]: > 50 µM (active)
EC50 [7]: > 300 µM (not active)

CCOC(=O)CSc1nnc(NCC(=O)OC(C)C)c(=O)[nH]1
EC50 [2]: 9.44 µM (active)
AC50 [4]: 3.45 µM (active)

O=C(O)CCc1ccc(-c2ccccc2)n1-c1ccc(C(=O)O)cc1
EC50 [5]: > 300 µM (not active)
EC50 [7]: > 300 µM (not active)

COc1ccc(CCSc2nnc(C3CCCCC3)n2N)cc1
AC50 [8]: 2.81 µM (active)

O=C(Nc1cccc(-c2cn3ccccc3n2)c1)c1ccccc1
AC50 [8]: 2.89 µM (active)

Nc1cc(C(=O)O)ccc1Nc1ccc(F)c(F)c1
AC50 [8]: 0.345 µM (active)

CCc1cc(-c2nnc(S)n2-c2cccc(C)c2)cs1
AC50 [8]: 3.65 µM (active)

O=C(c1cnn2c(C(F)F)cc(-c3ccccc3)nc12)N1CCc2ccccc2C1
CC50 [9]: > 40 µM (active)

CN1C(=O)C(=Cc2cn(CC(=O)N3CCCC3)c3ccccc23)C(=O)N(C)C1=O
EC50 [5]: > 300 µM (not active)
EC50 [7]: > 300 µM (not active)

CCN(CC)C(=O)Cn1cc(C(=O)C(=O)N2CCc3ccccc32)c2ccccc21
EC50 [5]: > 300 µM (not active)
EC50 [7]: > 300 µM (not active)

CN1CCN(Cn2cc(/C=C/C(=O)c3ccccc3)c3ccccc32)CC1
CC50 [9]: > 40 µM (active)
EC50 [10]: 0.233 µM (active)
EC50 [11]: 0.148 µM (active)
EC50 [12]: 18.9 µM (active)

O=C(Nc1cc(Oc2ccccc2)cc([N+](=O)[O-])c1)C12CC3CC(C1)CC(n1cnc(Cl)n1)(C3)C2
EC50 [1]: 1.51 µM (active)
CC50 [9]: > 40 µM (active)
EC50 [3]: > 60 µM (not active)

Sc1nnc(-c2ccc(Cl)cc2)n1-c1ccc(Cl)cc1
AC50 [8]: 4.74 µM (active)

COc1c(/C=C2/C(=O)NC(=O)N(C)C2=O)c(CCN(C)C(=O)c2ccccc2)cc2c1OCO2
EC50 [5]: > 300 µM (not active)
EC50 [7]: > 300 µM (not active)

Cc1noc(C)c1COC(=O)Cc1ccc(Br)cc1
EC50 [2]: > 380 µM (inactive)
AC50 [4]: 124 µM (active)

Cc1cc(C)n(C(=O)c2ccc([N+](=O)[O-])cc2[N+](=O)[O-])n1
IC50 [13]: 43.6 µM (active)

COc1cccc(NC(=O)c2ccc(Cn3cc([N+](=O)[O-])cn3)o2)c1
IC50 [13]: 18.5 µM (active)

O=C(Oc1ccccc1)c1cccc(COC(=O)c2cnccn2)c1
IC50 [13]: 6.99 µM (active)

COc1ccc(CNC(=O)c2cc3cccc(O)c3oc2=N)cc1
IC50 [13]: 47.8 µM (active)

COC(=O)C1CSc2[nH]c(=O)sc2C1c1ccc(OC)c(OC)c1 (centres undefined)
EC50 [5]: > 300 µM (not active)
EC50 [7]: > 300 µM (not active)

COC(=O)c1nnc(NC(=O)c2ccc(C(C)(C)C)cc2)[nH]1
EC50 [14]: > 195 µM (not active)
EC50 [2]: 10.1 µM (active)
AC50 [4]: 3.57 µM (active)

CCCCCc1ccc(S(=O)(=O)NCCc2ccncc2)cc1
CC50 [9]: 12.1 µM (active)

CC1(C)Nc2ccccc2N(Cc2ccc([N+](=O)[O-])cc2)C1=O
AC50 [8]: 3.92 µM (active)

CCCOc1ccc(/C=c2\sc3nc(-c4ccco4)nn3c2=O)cc1OCC
EC50 [5]: > 300 µM (not active)
EC50 [7]: > 300 µM (not active)

COc1cc(/C=N/Nc2nc(O)nnc2C)cc([N+](=O)[O-])c1O
EC50 [5]: 10.8 µM (inconclusive)
EC50 [7]: 7.98 µM (active)

CCOC(=O)c1c2ccc(OCC(=O)N/N=C/c3ccc(Cl)cc3)cc2n2ccccc12
EC50 [7]: > 300 µM (not active)

COc1c(O)cccc1[C@H](O)C1CCN(CCc2ccc(F)cc2)CC1
EC50 [5]: 13.7 µM (active)
IC50 [15]: 36.9 µM (inactive)
EC50 [7]: 14.4 µM (active)
IC50 [16]: > 66 µM (inactive)
